Here are results for one compound from patent US20230057602A1, “METHODS OF TREATMENT WITH ANTIBODIES AGAINST BCMA AND CD3” (BRISTOL-MYERS SQUIBB COMPANY, priority 2019, published 2023).

What all share (assay type): cell-based, human
For series [1], the system named is H929 BCMA-expressing myeloma cell line co-cultured with T-cells. The series is described as follows: CC-93269-induced cytokine secretion, T-cell co-culture with H929. Particulars: 1 μM DEX vs DMSO control, highest concentration of CC-93269, 72 hours, 3 donors.
The subject of series [2] is MM1S BCMA-expressing myeloma cell line co-cultured with T-cells. Description: CC-93269-induced cytokine secretion, T-cell co-culture with MM1S. Particulars: 1 μM DEX vs DMSO control, highest concentration of CC-93269, 72 hours, 3 donors.
Series [3] concerns SKMM2 BCMA-expressing myeloma cell line co-cultured with T-cells. The series is described as follows: CC-93269-induced cytokine secretion, T-cell co-culture with SKMM2. The note with it: 1 μM DEX vs DMSO control, highest concentration of CC-93269, 72 hours, 3 donors.
The test system of series [4] is KMS12-PE BCMA-expressing myeloma cell line co-cultured with T-cells. Description: CC-93269-induced cytokine secretion, T-cell co-culture with KMS12-PE. The note with it: 1 μM DEX vs DMSO control, highest concentration of CC-93269, 72 hours, 3 donors.
Series [5] concerns BCMA-expressing tumour cell lines co-cultured with T-cells. The series is described as follows: CC-93269-mediated cytokine release across the four co-cultures. Particulars: 1 μM DEX vs DMSO control, highest concentration of CC-93269.
The test system of series [6] is BCMA+ tumour cell lines. The series is described as follows: CC-93269-induced redirected lysis of BCMA+ tumour cell lines (overall). Particulars: co-treatment with CC-93269. Here is the method: The cocultures were incubated at 37° C. with 5% CO2. After 72 hours of incubation, culture supernatants were harvested and stored at −80° C. The cells were labeled with Live/Dead Fixable Aqua Dead Cell Stain, according to the manufacturer's instructions for 30 minutes at RT. Subsequently, cells were stained with antibodies against the following cell surface markers: CD2, CD3, CD4, CD8, CD69, CD25, HLA-DR, and CD154 in a final volume of 50 μL of flow staining buffer. After staining for cell surface molecules, the cells were washed once with 150 μL flow staining buffer, resuspended in 50 μL of BD Cytofix fixation buffer, and incubated for 30 minutes at RT. Cells were washed with 150 μL of flow staining buffer and resuspended in a final volume of 50 μL of flow staining buffer for analysis on an IQUE Screener plus instrument (Intellicyt, Albuquerque, N. Mex.). […] The IC50 values were calculated using non-linear regression analysis, sigmoidal dose-response using GraphPad Prism (version 5.0) software.

In the case of `C[C@@H]1C[C@H]2[C@@H]3CCC4=CC(=O)C=C[C@]4(C)[C@@]3(F)[C@@H](O)C[C@]2(C)[C@@]1(O)C(=O)CO` [Dexamethasone, dexamethasone], the “% Reduction of CC-93269-induced IL-2 secretion, Mean” value in series [1] was found to be 74.1%; in series [2] it was 57.6%; in series [3], 56.5%; in series [4] it was 48.3%. For the same compound, the “% Reduction of CC-93269-induced TNF-α secretion, Mean” value in series [1] was 61.8%; in series [2], 50.3%; in series [3], 46.3%; in series [4] it was 53.9%. The “lowering of CC-93269-mediated release of IL-2” value in series [5] is on record as 48.3-74.1%. Also, the “lowering of CC-93269-mediated release of TNF-α” value in series [5] is listed as 46.3-61.8%. In addition, the “effect of dexamethasone on CC-93269-induced redirected lysis / cytotoxic activity” value in series [6] was “minimally affected”; in series [6] (listed as dexamethasone), “minimal suppressive impact”.
